In patent US8227604B2, “Hybrid 2-aminotetralin and aryl-substituted piperazine compounds and their use in altering CNS activity” (Wayne State University, priority 2001, dated 2012):

What was measured:
5HT2A receptor = target: T1, 5HT2A receptor (Homo sapiens, UniProt P28223); assay: Binding affinity at cloned human 5HT2A receptor, [3H]Ketanserin
T1 construct: expressed in transfected cells

D2 receptor [1] = target: T2, D2 receptor (Homo sapiens, UniProt P14416); assay: Binding affinity at cloned human D2 receptor, [3H]YM-09151-2 (CHOp-D2 cells)
T2 construct: expressed in transfected cells
Protocol: (§1) CHOp-cells (human receptors) are grown to confluence in a minimum essential medium (α MEM) containing 10% fetal calf serum, 0.05% pen-strep, and 600 μg/ml of G418. The cells are scraped from the 100 by 20 mm plates and centrifuged at 500. g for 5 min. The pellet is homogenized by polytron in 50 mM Tris-HCl, pH 7.7, and centrifuged at 27,000·G for 12 min. The pellet is resuspended in 50 mM Tris, D2 at 5 mg protein/ml, D3 at 1 mg protein/ml, and stored at −70° C. in 1-ml aliquots.
(§2) On the day of the experiment, CHOp-D2 or CHOp-D3 cells are thawed, resuspended in 50 mM Tris, and centrifuged at 27,000·G for 12 min. The pellet is then resuspended at 5 mg protein/80 ml (D2) and 1 mg protein/80 ml (D3) in 50 mM Tris containing 120 mM of NaCl, 5 mM of KCl, 1.5 mM of CaCl2, 4 mM of MgCl2, and 1 mM of EDTA, pH 7.4. […] Nonspecific binding is determined with 1 mM of chlorpromazine. The plates are incubated at 25° C. for 60 min before filtration and counted as usual. The filters are soaked in 0.1% PEI before filtering.

D3 receptor [2] = target: T3, D3 receptor (Homo sapiens, UniProt P35462); assay: Binding affinity at cloned human D3 receptor, [3H]YM-09151-2 (CHOp-D3 cells); design: expressed in transfected cells; host or cells: CHOp-D3 cells; conditions: for Ki: cloned human D3; for D2/D3: ratio of Ki D2 to Ki D3, [3H]YM-09151-2 protocol of Table 4
Protocol: as §1, §2

D2L receptor = target: T4, D2L receptor (Homo sapiens, UniProt P14416); assay: Inhibition constants for binding to cloned D2L receptor expressed in HEK cells, [3H]spiperone
T4 construct: expressed in transfected cells; host or cells: HEK cells
Protocol: (§3) Inhibition constants for binding to cloned D2L and D3 receptors expressed in HEK cells by displacing [^3H] spiperone were measured for several compounds.

5HT1A receptor = target: T5, 5HT1A receptor (Homo sapiens, UniProt P08908); assay: Binding affinity at cloned human 5HT1A receptor, [3H]8-OH-DPAT (HA7 cells)
T5 construct: expressed in transfected cells; host or cells: HA7 cells
T5 sequence (P08908 1-422): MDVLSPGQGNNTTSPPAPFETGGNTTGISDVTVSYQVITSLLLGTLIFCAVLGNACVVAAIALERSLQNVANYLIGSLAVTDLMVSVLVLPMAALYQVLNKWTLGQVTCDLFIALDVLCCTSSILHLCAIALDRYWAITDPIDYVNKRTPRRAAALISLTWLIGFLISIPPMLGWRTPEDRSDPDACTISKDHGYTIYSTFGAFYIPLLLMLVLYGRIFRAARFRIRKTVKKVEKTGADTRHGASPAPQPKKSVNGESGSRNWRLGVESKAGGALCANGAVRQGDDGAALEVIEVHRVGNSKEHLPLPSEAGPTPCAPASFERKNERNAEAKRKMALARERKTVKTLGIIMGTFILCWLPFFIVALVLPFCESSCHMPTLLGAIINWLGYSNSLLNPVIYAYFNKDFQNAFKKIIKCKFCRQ
Protocol: HA7 cells (human receptor) are grown to confluence in DMEM containing 10% fetal calf serum, 0.05% penicillin-streptomycin (pen-strep), and […] of G418. The cells are scraped from the 100 by 20 mm plates and centrifuged at 500·G for 5 min. The pellet is homogenized in 50 mM Tris-HCl, pH 7.7, with a polytron, centrifuged at 27,000·G and resuspended at 10 mg protein/ml in the same buffer. The homogenate is then stored at −70° C. in 1-ml aliquots.
The thawed cells are washed once and resuspended at 10 mg protein/80 ml in 25 mM Tris-HCl containing 100 μM of ascorbic acid and 10 mM of nialamide at pH 7.4. The assay is performed in triplicate in a 96-well plate. To 100 μl of [^3H]8-OH-DPAT (0.5 nM final conc), […] of test compound or buffer and 0.8 ml of cell homogenate (0.1 mg protein/well) is added to each well by a Tomtec Quadra 96. Nonspecific binding is defined using 1 μM dihydroergotamine. The plates are incubated at 25° C. for 60 min, then filtered. The incubation is terminated by rapid filtration through glass fiber filter paper on a Tomtec cell harvester. The filters are washed four times with ice-cold 50 mM Tris-HCl, pH 7.7, dried overnight, bagged with 10 ml scintillation cocktail before counting for 2 min. on a Wallac Betaplate 1205 liquid scintillation counter.

D2 receptor [3] = target: T2, D2 receptor; assay: Agonist potency by [3H]thymidine incorporation (mitogenesis), D2; assay type: cell-based; conditions: [3H]thymidine incorporation; for Emax: >80% full agonist, read-out: D2 % Maxm Stim
Protocol: (§4) Potential as domaminergenic agonists was assayed by ^3H-thymidine incorporation by standard techniques.
(§5) The EC50 values thus indicate intrinsic activities or functional activities of these compounds. The value of % maximum stimulation indicates whether a compound is a partial agonist or full agonist. Generally, a value greater than 80% is considered as a full agonist and anything less than 80% is considered as a partial agonist.

D3 receptor [4] = target: T3, D3 receptor; assay: Agonist potency by [3H]thymidine incorporation (mitogenesis), D3; assay type: cell-based; design: expressed in transfected cells; host or cells: CHOp-D3 cells; conditions: [3H]thymidine incorporation; for Emax: >80% full agonist, read-out: D3 % Maxm Stim
Protocol: as §4, §5

5HT2C receptor = target: T6, 5HT2C receptor (Homo sapiens, UniProt P28335); assay: Binding affinity at cloned human 5HT2C receptor, [3H]Mesulergine
T6 construct: expressed in transfected cells
T6 sequence (P28335 33-458): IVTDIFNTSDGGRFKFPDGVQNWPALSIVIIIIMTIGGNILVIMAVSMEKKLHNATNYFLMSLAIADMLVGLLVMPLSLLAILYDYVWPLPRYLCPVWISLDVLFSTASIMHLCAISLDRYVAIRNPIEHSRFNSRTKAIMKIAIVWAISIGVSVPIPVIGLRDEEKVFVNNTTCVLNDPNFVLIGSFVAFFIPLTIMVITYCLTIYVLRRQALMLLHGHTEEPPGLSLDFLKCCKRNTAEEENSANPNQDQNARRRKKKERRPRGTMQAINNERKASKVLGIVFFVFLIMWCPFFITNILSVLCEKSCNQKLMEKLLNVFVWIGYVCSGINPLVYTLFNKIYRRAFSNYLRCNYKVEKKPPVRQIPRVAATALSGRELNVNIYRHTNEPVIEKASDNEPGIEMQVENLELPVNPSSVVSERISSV

D3 receptor [5] = target: T3, D3 receptor; assay: Inhibition constants for binding to cloned D3 receptor expressed in HEK cells, [3H]spiperone; conditions: D3 expressed in HEK cells
Protocol: as §3

D1 receptor = target: T7, D1 receptor (Homo sapiens, UniProt P21728); assay: Binding affinity at cloned human D1 receptor, [3H]SCH23390 (LHD1 cells)
T7 construct: expressed in transfected cells; host or cells: LHD1 cells
Protocol: LHD1 cells (human receptor) are grown and prepared as described for the HA7 cells as described hereafter. The final pellet is resuspended at 5 mg protein/80 ml in 50 mM Tris-HCl containing 120 mM of NaCl, 5 mM of KCl, 2 mM of CaCl2, and 1 mM of MgCl2, pH 7.4. To wells containing 100 μl of test drug or buffer and […] of [^3H]SCH 23390 (0.18 nM final conc.), is added 0.8 ml of cell homogenate (0.05 mg protein/well), and the plates are incubated at […] for 60 min. Nonspecific binding is determined with 1 μM of SCH 23390.

D3 receptor [6] = target: T3, D3 receptor; assay: Binding affinity at cloned human D3 receptor, [3H]Spiperone (Table 5); design: expressed in transfected cells; host or cells: CHOp-D3 cells; conditions: for activity at the D3 receptor: Table 5; for Ki: cloned human D3, Table 5
D2 receptor [7] = target: T2, D2 receptor; assay: Binding affinity at cloned human D2 receptor, [3H]Spiperone (Table 5); conditions: for affinity for the D2 receptor: Table 5; for Ki: cloned human D2, Table 5

T7 sequence (P21728 whole entry): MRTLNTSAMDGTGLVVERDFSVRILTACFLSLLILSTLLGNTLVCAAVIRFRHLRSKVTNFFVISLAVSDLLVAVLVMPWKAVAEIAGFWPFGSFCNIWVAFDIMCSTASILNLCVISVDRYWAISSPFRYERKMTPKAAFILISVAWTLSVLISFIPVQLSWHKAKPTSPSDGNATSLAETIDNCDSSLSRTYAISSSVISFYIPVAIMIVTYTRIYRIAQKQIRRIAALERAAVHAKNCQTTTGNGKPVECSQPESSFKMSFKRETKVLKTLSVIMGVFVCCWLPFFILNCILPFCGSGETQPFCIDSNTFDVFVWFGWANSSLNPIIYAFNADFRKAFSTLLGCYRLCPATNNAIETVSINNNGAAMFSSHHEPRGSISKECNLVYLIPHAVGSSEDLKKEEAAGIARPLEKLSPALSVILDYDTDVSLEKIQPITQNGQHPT
T4 sequence (P14416 whole entry): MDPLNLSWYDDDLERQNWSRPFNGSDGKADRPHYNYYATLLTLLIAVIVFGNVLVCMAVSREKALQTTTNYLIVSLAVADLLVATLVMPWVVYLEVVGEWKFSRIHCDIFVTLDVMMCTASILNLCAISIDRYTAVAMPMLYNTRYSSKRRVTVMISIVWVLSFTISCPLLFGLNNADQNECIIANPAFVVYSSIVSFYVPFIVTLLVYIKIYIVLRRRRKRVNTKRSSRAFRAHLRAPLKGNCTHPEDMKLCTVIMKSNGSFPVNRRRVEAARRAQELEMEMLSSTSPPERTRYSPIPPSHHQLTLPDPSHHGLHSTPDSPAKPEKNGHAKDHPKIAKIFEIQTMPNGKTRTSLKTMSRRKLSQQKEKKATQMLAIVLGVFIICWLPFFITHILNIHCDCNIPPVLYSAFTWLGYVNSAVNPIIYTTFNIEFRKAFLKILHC
T2 sequence (P14416 whole entry): as above
T3 sequence (P35462 whole entry): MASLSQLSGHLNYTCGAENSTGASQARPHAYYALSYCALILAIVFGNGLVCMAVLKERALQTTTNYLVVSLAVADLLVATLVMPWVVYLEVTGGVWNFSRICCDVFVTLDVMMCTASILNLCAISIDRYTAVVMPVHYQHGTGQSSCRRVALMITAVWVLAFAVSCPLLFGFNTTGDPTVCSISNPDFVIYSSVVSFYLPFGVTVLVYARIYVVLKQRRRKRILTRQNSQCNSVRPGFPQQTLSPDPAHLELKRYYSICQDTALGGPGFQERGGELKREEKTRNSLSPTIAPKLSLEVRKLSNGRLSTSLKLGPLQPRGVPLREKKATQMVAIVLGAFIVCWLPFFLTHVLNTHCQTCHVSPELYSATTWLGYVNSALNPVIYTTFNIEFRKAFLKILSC
T1 sequence (P28223 whole entry): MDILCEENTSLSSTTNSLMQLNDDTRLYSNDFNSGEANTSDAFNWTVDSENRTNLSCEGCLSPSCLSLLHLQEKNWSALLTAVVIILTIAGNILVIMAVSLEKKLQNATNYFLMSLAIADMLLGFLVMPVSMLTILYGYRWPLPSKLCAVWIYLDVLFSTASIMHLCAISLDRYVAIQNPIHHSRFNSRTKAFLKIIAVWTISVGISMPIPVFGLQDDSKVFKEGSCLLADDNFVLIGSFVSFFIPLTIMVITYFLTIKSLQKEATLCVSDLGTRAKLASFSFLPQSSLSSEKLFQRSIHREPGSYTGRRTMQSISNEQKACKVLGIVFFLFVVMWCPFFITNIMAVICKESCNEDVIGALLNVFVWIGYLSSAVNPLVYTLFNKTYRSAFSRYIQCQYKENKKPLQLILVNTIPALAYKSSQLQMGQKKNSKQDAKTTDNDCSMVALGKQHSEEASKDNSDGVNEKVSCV

For `CCCN(CCCCN1CCN(c2cccc(Cl)c2Cl)CC1)C1CCc2ccc(O)cc2C1` (centres unmarked) [Compound 19a, 7-Hydroxy-2-[N-propyl-(N-(4-(2,3-dichlorophenyl)-piperazin-1-yl)-butyl)amino]tetralin], the Ki (5HT2A receptor) was 356 nM, the Ki (D2 receptor [1]) was 31.5 nM and the Ki (D3 receptor [2]) was 2.66 nM. The D2/D3 (D3 receptor [2]) was 15, the Ki (D2L receptor) was 8.78 ± 0.81 nM and the Ki (5HT1A receptor) was 40.6 nM. It also gave an EC50 (D2 receptor [3]) of 8.31 ± 0.69 nM, an Emax (D2 receptor [3]) of 80.1 ± 8.15% and an EC50 (D3 receptor [4]) of 6.49 ± 2.46 nM. It also gave an Emax (D3 receptor [4]) of 85.7 ± 1.19%, a Ki (5HT2C receptor) of 639 nM and a Ki (D3 receptor [5]) of 2.26 ± 0.5 nM. For the same compound, the Ki (D1 receptor) was 4060 nM.
With `CCCN(CCc1cccc(N)c1)CCN1CCN(c2ccccc2)CC1` [Compound 29b, 3-(2-{[2-(4-Phenyl-piperazin-1-yl)-ethyl]-propyl-amino}-ethyl)-phenylamine] the “activity at the D3 receptor” value (D3 receptor [6]) was “some activity”, the Ki (D3 receptor [6]) was 1480 nM and the “affinity for the D2 receptor” value (D2 receptor [7]) was “exceptionally low affinity”. For the same compound, the Ki (D2 receptor [7]) was 23500 nM.
Work on `CCCN(CCN1CCN(c2ccccc2)CC1)C1CCc2ccc(O)cc2C1` (centres unmarked) [Compound 15a, 7-Hydroxy-2-[N-propyl-(N-(4-phenylpiperazin-1-yl)-ethyl)amino]tetralin] yielded a Ki (5HT2A receptor) of 1540 nM, a Ki (D2 receptor [1]) of 75.5 nM and a Ki (D3 receptor [2]) of 3.2 nM. The “selectivity for D3 relative to the standard 7-OH-DPAT” value (D3 receptor [2]; protocol used in Table 4) was “more than two fold”, the D2/D3 (D3 receptor [2]) was 25 and the Ki (D2L receptor) was 213 ± 26 nM. For the same compound, the Ki (5HT1A receptor) was 21.4 nM, the EC50 (D2 receptor [3]) was 1.59 ± 0.06 nM and the Emax (D2 receptor [3]) was 105 ± 11.3%. The EC50 (D3 receptor [4]) was 0.97 ± 0.02 nM, the Emax (D3 receptor [4]) was 84.6 ± 10.8% and the Ki (5HT2C receptor) was over 10000 nM. For the same compound, the Ki (D3 receptor [5]) was 1.75 ± 0.34 nM and the Ki (D1 receptor) was over 10000 nM.
With `C#CCN(CCN1CCN(c2ccccc2)CC1)C1CCc2ccc(O)cc2C1` (centres unmarked) [Compound 12a, 7-Hydroxy-1-2-[N-propargyl-(N-(4-phenylpiperazin-1-yl)-ethyl)amino]tetralin] the Ki (5HT2A receptor) was 161 nM, the Ki (D2 receptor [1]) was 65.5 nM and the Ki (D3 receptor [2]) was 23.5 nM. It also gave a D2/D3 (D3 receptor [2]) of 2.8, a Ki (D2L receptor) of 245 ± 26 nM and a Ki (5HT1A receptor) of 27.6 nM. It also gave an EC50 (D2 receptor [3]) of 6.18 ± 0.18 nM, an Emax (D2 receptor [3]) of 87.2 ± 2.16% and an EC50 (D3 receptor [4]) of 1.25 ± 0.08 nM. It also gave an Emax (D3 receptor [4]) of 94.5 ± 6.17%, a Ki (5HT2C receptor) of 2690 nM and a Ki (D3 receptor [5]) of 14.2 ± 1.7 nM. For the same compound, the Ki (D1 receptor) was 663 nM.
`CCCN(CCc1cccc(NS(=O)(=O)c2ccc(Cl)cc2)c1)CCN1CCN(c2ccccc2)CC1` [Compound 30b, 4-Chloro-N-[3-(2-{[2-(4-phenyl-piperazin-1-yl)-ethyl]-propyl-amino}-ethyl)-phenyl]-benzenesulfonamide] showed a Ki (D3 receptor [6]) of 36.8 ± 5.4 nM and a Ki (D2 receptor [7]) of 552 ± 31 nM.
`C#CCN(CCCCN1CCN(c2cccc(Cl)c2Cl)CC1)C1CCc2ccc(O)cc2C1` (centres unmarked) [Compound 19b, 7-Hydroxy-2-[N-propargyl-(N-(4-(2,3-dichlorophenyl)-piperazin-1-yl)-butyl)amino]tetralin] gave a Ki (5HT2A receptor) of 160 nM, a Ki (D2 receptor [1]) of 28.1 nM and a Ki (D3 receptor [2]) of 12.7 nM. The D2/D3 (D3 receptor [2]) was 2.3, the Ki (D2L receptor) was 7.37 ± 0.27 nM and the Ki (5HT1A receptor) was 64.4 nM. For the same compound, the EC50 (D2 receptor [3]) was 11.8 ± 1.84 nM, the Emax (D2 receptor [3]) was 85.7 ± 9.15% and the EC50 (D3 receptor [4]) was 3.08 ± 1.09 nM. The Emax (D3 receptor [4]) was 90.3 ± 15.5%, the Ki (5HT2C receptor) was 264 nM and the Ki (D3 receptor [5]) was 3.59 ± 0.58 nM. For the same compound, the Ki (D1 receptor) was 1720 nM.
`CCCN(CCc1ccc(NS(=O)(=O)c2ccc(Cl)cc2)cc1)CCN1CCN(c2ccccc2)CC1` [Compound 30a, 4-Chloro-N-[4-(2-{[2-(4-phenyl-piperazin-1-yl)-ethyl]-propyl-amino}-ethyl)-phenyl]-benzenesulfonamide] gave a Ki (D3 receptor [6]) of 5.98 ± 0.7 nM and a Ki (D2 receptor [7]) of 702 ± 22 nM.
`CCCN(CCc1ccc(N)cc1)CCN1CCN(c2ccccc2)CC1` [Compound 29a, 4-(2-{[2-(4-Phenyl-piperazin-1-yl)-ethyl]-propyl-amino}-ethyl)-phenylamine] was tested, and the “activity at the D3 receptor” value (D3 receptor [6]) was “some activity”, the Ki (D3 receptor [6]) was 1150 nM and the “affinity for the D2 receptor” value (D2 receptor [7]) was “exceptionally low affinity”. For the same compound, the Ki (D2 receptor [7]) was 25600 nM.
